BindingDB's records for doi:10.7270/Q2B27SRF (Broad Institute, 2010)

Each compound was assayed against Serine/threonine-protein kinase 33 (Homo sapiens, UniProt Q9BYT3) (assay: inhibition of STK33 phosphorylation of MBP – biochemical, luminescence, cell-free, retest, dose response (AID 2821)).
Sequence of Serine/threonine-protein kinase 33 (Q9BYT3 whole entry): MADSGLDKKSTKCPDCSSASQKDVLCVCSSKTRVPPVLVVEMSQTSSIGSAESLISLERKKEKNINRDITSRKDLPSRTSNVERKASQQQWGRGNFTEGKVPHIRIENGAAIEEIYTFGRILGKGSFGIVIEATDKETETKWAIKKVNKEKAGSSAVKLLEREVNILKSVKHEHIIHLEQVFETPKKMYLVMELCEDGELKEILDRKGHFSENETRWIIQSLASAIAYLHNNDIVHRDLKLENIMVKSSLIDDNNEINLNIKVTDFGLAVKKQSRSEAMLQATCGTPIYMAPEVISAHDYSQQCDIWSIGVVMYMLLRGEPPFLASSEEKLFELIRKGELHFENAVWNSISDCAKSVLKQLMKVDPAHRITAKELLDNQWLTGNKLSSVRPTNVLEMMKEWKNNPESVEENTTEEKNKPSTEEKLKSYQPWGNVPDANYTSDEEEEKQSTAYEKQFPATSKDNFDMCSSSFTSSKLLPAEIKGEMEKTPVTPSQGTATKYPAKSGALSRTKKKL

Compound | EC50
O=C(O)c1ccc(NC(=O)c2cccc(C(=O)Nc3ccc(C(=O)O)cc3)n2)cc1 [4-[[6-[(4-carboxyphenyl)carbamoyl]pyridin-2-yl]carbonylamino]benzoic acid] | 28.3 µM
NC(=S)c1cn(C2OC(CO)C(O)C2O)c2ncnc(N)c12 (configuration not stated) [4-amino-7-[3,4-dihydroxy-5-(hydroxymethyl)oxolan-2-yl]pyrrolo[2,3-d]pyrimidine-5-carbothioamide] | 3.48 µM
O=C(Nc1nccs1)c1ccc(N2CCOCC2)c([N+](=O)[O-])c1 [4-morpholin-4-yl-3-nitro-N-(1,3-thiazol-2-yl)benzamide] | 42.1 µM
COc1ccc(-c2nc(-c3ccccn3)no2)cc1 [5-(4-methoxyphenyl)-3-(2-pyridinyl)-1,2,4-oxadiazole] | > 120 µM
COc1ccc(C2=CC3=C(Br)C(=O)C(C)(O)C(=O)C3=CO2)cc1 (configuration not stated) [5-bromanyl-3-(4-methoxyphenyl)-7-methyl-7-oxidanyl-isochromene-6,8-dione] | 86 µM
O=C(Nc1cccc(-c2cn3cccnc3n2)c1)c1ccc(Br)o1 [5-bromanyl-N-(3-imidazo[1,2-a]pyrimidin-2-ylphenyl)furan-2-carboxamide] | 16 µM
CCN1CCN(c2cc(C)c3cc(NC(=O)c4ccc(Br)o4)ccc3n2)CC1 [5-bromo-N-[2-(4-ethylpiperazin-1-yl)-4-methylquinolin-6-yl]furan-2-carboxamide] | 18.4 µM
Cc1cc(N2C(=O)c3ccc(C(=O)Nc4ccc(O)cc4C(=O)O)cc3C2=O)no1 [5-hydroxy-2-[[[2-(5-methyl-3-isoxazolyl)-1,3-dioxo-5-isoindolyl]-oxomethyl]amino]benzoic acid] | 24 µM
O=C(c1ccc2c3n(nc2c1)-c1ccccc1CO3)N1CCOCC1 [5H-indazolo[2,3-a][3,1]benzoxazin-9-yl(4-morpholinyl)methanone] | 18.4 µM
O=C(c1ccc2c3n(nc2c1)-c1ccccc1CO3)N1CCCCC1 [5H-indazolo[2,3-a][3,1]benzoxazin-9-yl(piperidin-1-yl)methanone] | > 120 µM
CCn1c2ccc(C)cc2c2nc3cc(C(=O)O)ccc3nc21 [6-ethyl-9-methylindolo[2,3-b]quinoxaline-2-carboxylic acid] | 17.9 µM
C/C=C/Cn1c(SCc2ccc(Cl)cc2)nc2c1c(=O)[nH]c(=O)n2C [7-[(E)-but-2-enyl]-8-[(4-chlorophenyl)methylsulfanyl]-3-methylpurine-2,6-dione] | > 120 µM
O=C1NCCCc2c1oc1ccc(O)cc21 [7-hydroxy-2,3,4,5-tetrahydro-[1]benzofuro[2,3-c]azepin-1-one] | 3.71 µM
CCn1c2ccccc2c(=O)c2ccccc21 [10-ethyl-9-acridinone] | 16.7 µM
Cn1c(/N=N/c2ccccc2)nc2ccccc21 [(1-methyl-2-benzimidazolyl)-phenyldiazene] | > 120 µM
N#C/C(=C\c1ccc(O)c(O)c1)C(=O)c1ccc(O)c(O)c1 [(2E)-3-(3,4-dihydroxyphenyl)-2-[(3,4-dihydroxyphenyl)carbonyl]prop-2-enenitrile] | 44.9 µM
COc1cc(CN=Nc2ccc(C(F)(F)F)cn2)ccc1O [(4E)-2-methoxy-4-[[[5-(trifluoromethyl)-2-pyridinyl]hydrazo]methylidene]-1-cyclohexa-2,5-dienone] | 19 µM
COc1cc(C=Nn2c(C3CCCCC3)n[nH]c2=S)ccc1O [(4E)-4-[[(3-cyclohexyl-5-sulfanylidene-1H-1,2,4-triazol-4-yl)amino]methylidene]-2-methoxy-cyclohexa-2,5-dien-1-one] | 22 µM
CCOc1cc(/C=C2\SC(N3CCCC(C)C3)=NC2=O)ccc1O (configuration not stated) [(5Z)-5-[(3-ethoxy-4-hydroxyphenyl)methylidene]-2-(3-methylpiperidin-1-yl)-1,3-thiazol-4-one] | > 120 µM
C[C@H]1CCCC(=O)CCCC=Cc2cc(O)cc(O)c2C(=O)O1 [(11S)-11-methyl-15,17-bis(oxidanyl)-12-oxabicyclo[12.4.0]octadeca-1(18),2,14,16-tetraene-7,13-dione] | 44.6 µM
CN(C)/C=C/C(=O)c1ccc2noc(-c3cccc(F)c3)c2c1 [(E)-3-(dimethylamino)-1-[3-(3-fluorophenyl)-2,1-benzoxazol-5-yl]-2-propen-1-one] | 18.7 µM
Oc1cc(O)cc(/C=C/c2ccc(O)cc2O)c1 [(oxyresveratrol)4-[(E)-2-(3,5-dihydroxyphenyl)vinyl]benzene-1,3-diol] | 9.66 µM
O=C1NC2c3ccccc3C(=O)N2c2c1cnn2-c1ccccc1 (configuration not stated) [MLS000028140] | > 120 µM
c1coc(C2Nc3ccccc3-c3nc4ccccc4n32)c1 (configuration not stated) [MLS000055458] | 30.8 µM
CN(C)c1nc2sc3c(c2c(=O)n1C)CC(C)(C)OC3 [MLS000071412] | > 120 µM
CCOC(=O)Cc1nnc(NC(=O)COc2ccc(C)cc2)s1 [MLS000082525] | > 120 µM
c1cncc(C2Nc3ccccc3-c3nc4ccccc4n32)c1 (configuration not stated) [MLS000098034] | 27.1 µM
CN1CCN(C=NC2=NN(c3cccc(C(F)(F)F)c3)CC2)CC1 [MLS000418536] | > 120 µM
S=C(Nc1ccccc1)Nc1ccc2c[nH]nc2c1 [MLS000516600] | 19.5 µM
COc1ccc(C(=O)ON=C(C)c2cccs2)cc1 [MLS000544771] | 29.1 µM

Continued by falling EC50, values first:

EC50 | Compound
14.3 µM | Oc1ccccc1-c1nc(NCCN2CCOCC2)c2ccccc2n1 [(6E)-6-[4-(2-morpholin-4-ylethylamino)-1H-quinazolin-2-ylidene]cyclohexa-2,4-dien-1-one]
14.1 µM | Oc1ccc(CN=Nc2ccc(C(F)(F)F)cn2)cc1 [4-[[2-[5-(trifluoromethyl)pyridin-2-yl]hydrazinyl]methylidene]cyclohexa-2,5-dien-1-one]
11.8 µM | COC(=O)c1cccc2c1-c1ccccc1C2N=O (configuration not stated) [(9Z)-9-hydroximinofluorene-4-carboxylic acid methyl ester]
11.3 µM | O=C1Nc2ccccc2C1C=Nc1ccc2c(c1)OCO2 (configuration not stated) [(3Z)-3-[(1,3-benzodioxol-5-ylamino)methylidene]-1H-indol-2-one]
10.8 µM | O=C(Nc1ccccc1-c1ccccc1)c1ccc(Br)o1 [5-bromo-N-(2-phenylphenyl)furan-2-carboxamide]
10.7 µM | O=C(O)Cc1ccc(N=Cc2c(O)ccc3ccccc23)cc1 [(4-{[(2-hydroxy-1-naphthyl)methylene]amino}phenyl)acetic acid]
10.4 µM | COc1cc(C=Nn2c(S)nnc2-c2[nH]nc3c2CCC3)ccc1O [(4E)-2-methoxy-4-[[[5-sulfanylidene-3-(1,4,5,6-tetrahydrocyclopenta[c]pyrazol-3-yl)-1H-1,2,4-triazol-4-yl]amino]methylidene]cyclohexa-2,5-dien-1-one]
9.79 µM | CCn1cc(/C=C/C(=O)c2ccc(O)cc2)c(C)n1 [(E)-3-(1-ethyl-3-methyl-4-pyrazolyl)-1-(4-hydroxyphenyl)-2-propen-1-one]
9.71 µM | c1nc(N2CCCC2)c2[nH]cnc2n1 [6-(1-pyrrolidinyl)-7H-purine]
9.68 µM | COc1cc(-c2cc(=O)c3c(O)c(OC)c(OC)c(O)c3o2)ccc1O [5,8-dihydroxy-2-(4-hydroxy-3-methoxy-phenyl)-6,7-dimethoxy-chromone]
8.62 µM | CCOc1cc(C=C(C#N)c2n[nH]c(N)c2C#N)ccc1O [MLS000523215]
8.14 µM | COc1ccc(O)c(-c2nc(N)nc(N)n2)c1 [(6Z)-6-[4,6-bis(azanyl)-1H-1,3,5-triazin-2-ylidene]-4-methoxy-cyclohexa-2,4-dien-1-one]
7.93 µM | COc1ccccc1NC(=O)Nc1ncccc1C [MLS000072334]
7.09 µM | COc1cc(C=Nn2c(-c3ccccc3)n[nH]c2=S)ccc1O [(4E)-2-methoxy-4-[[(3-phenyl-5-sulfanylidene-1H-1,2,4-triazol-4-yl)amino]methylidene]cyclohexa-2,5-dien-1-one]
7.05 µM | Nc1nc(N)nc(-c2cc(O)ccc2O)n1 [(6E)-6-(4,6-diamino-1H-1,3,5-triazin-2-ylidene)-4-hydroxycyclohexa-2,4-dien-1-one]
6.22 µM | O=NCc1c(Nc2ccccc2)nc2ccccn2c1=O [(3Z)-3-[(hydroxyamino)methylene]-2-phenylimino-pyrido[1,2-a]pyrimidin-4-one]
6.2 µM | O=C(O)c1ccc(N=Cc2c(O)ccc3oc4c(c23)CCCC4)cc1 [4-{[1-(2-Hydroxy-6,7,8,9-tetrahydro-dibenzofuran-1-yl)-meth-(E)-ylidene]-amino}-benzoic acid]
5.29 µM | COc1ccc(-c2onc3ccc(C(=O)/C=C/N(C)C)cc23)cc1 [(E)-3-(dimethylamino)-1-[3-(4-methoxyphenyl)-2,1-benzoxazol-5-yl]-2-propen-1-one]
5.04 µM | CCNc1nc(N)nc(-c2cc(Cl)ccc2O)n1 [(6E)-6-[6-amino-4-(ethylamino)-1H-1,3,5-triazin-2-ylidene]-4-chloro-1-cyclohexa-2,4-dienone]
4.01 µM | O=c1ccc2cc3c([nH]c4ccc(Br)cc43)oc-2c1O [9-bromo-4-hydroxy-6H-[1]benzopyrano[2,3-b]indol-3-one]
4 µM | COc1cc(C=C2SC(Nc3ccccc3OC)=NC2=O)ccc1O [5-(4-Hydroxy-3-methoxy-benzylidene)-2-(2-methoxy-phenylimino)-thiazolidin-4-one]
3.83 µM | CCN(CC)c1ccc(/C=C2/C(=O)c3ccc(C(=O)O)cc3C2=O)cc1 [(2Z)-2-[[4-(diethylamino)phenyl]methylidene]-1,3-dioxoindene-5-carboxylic acid]
3.05 µM | Oc1ccc(CN=Nc2ccnc3cc(Cl)ccc23)cc1O [(4Z)-4-[[2-(7-chloroquinolin-4-yl)hydrazinyl]methylidene]-2-hydroxycyclohexa-2,5-dien-1-one]
2.84 µM | Oc1ccc(/N=C/c2c(O)ccc3ccccc23)cc1 [(1Z)-1-[(4-hydroxyanilino)methylidene]-2-naphthalenone]
2.49 µM | CC[C@H](CO)Nc1nc(Nc2cccc(Cl)c2)c2ncn(C(C)C)c2n1 [(R)-2-(6-(3-chlorophenylamino)-9-isopropyl-9H-purin-2-ylamino)butan-1-ol]
0.936 µM | COc1cc(C=C2SC(N)=NC2=O)ccc1O [(5Z)-2-azanyl-5-[(3-methoxy-4-oxidanyl-phenyl)methylidene]-1,3-thiazol-4-one]
0.769 µM | CCCn1c(NC(=O)c2cccc(S(=O)(=O)N3CCCC3)c2)nc2ccccc21 [MLS000057540]
